Data on 2 compounds can be found in paper PMC6150242, “Design, Synthesis and Anticancer Evaluation of Fangchinoline Derivatives” (Molecules : A Journal of Synthetic Chemistry and Natural …, 2017).

The structures appear in SMILES notation. Where two headings read alike, the source gives them in different places.

One data set relates to Survivin. Put plainly: Western blot of apoptosis indicators, Survivin. The format is cell-based, human. Particulars: WM9 cells, 2.5 µM, 24 h. On the procedure: (§1) Western blot analysis was induced to elucidate the effect of compound 4g on protein levels to further expatiate how compound 4g induces apoptosis in WM9 cells (Figure 3). The Bcl-xl, Bcl-2 and Survivin display repressor activities in cell death.
(§2) The total protein was collected from WM9 cells using RIPA lysis buffer, and separated on 10% SDS Page, as described. The protein was then transferred to polyvinylidene fluoride (PVDF, 0.2 µm) membrane, and blocked by 5% BSA solution for 2 h at room temperature. The membrane was then incubated with specific primary antibodies overnight at 4 °C, followed by incubation with corresponding HRP-conjugated secondary antibodies for 2 h at room temperature. Expression of particular proteins was measured by applying ECL select substrate (Li-Cor, Lincoln, NE, USA). Polyclonal rabbit antibody for Bcl-2 was obtained from Abcam (Abcam, Cambridge, UK); Bcl-xl, Survivin, Casepase-3 and PARP antibodies from Cell Signalling Technology (CST, Danvers, MA, USA) and GAPDH from Goodhere Biotechnology (Hangzhou, Zhejiang, China).
(§3) Figure 3 Fangchinoline derivative 4g affects the protein levels of the apoptotic genes in WM9 cell line. […] WM9 cells were treated with 2.5 μM 4g for 24 h.

For the next data set, the system named is Caspase-3. Put plainly: Western blot of apoptosis indicators, Caspase-3. Particulars: WM9 cells, 2.5 µM, 24 h. The format is cell-based, human. On the procedure:
as §1, §2, §3

The test system of another data set is Bcl-2. Put plainly: Western blot of apoptosis indicators, Bcl-2. The data set is classed as cell-based, human. Particulars: WM9 cells, 2.5 µM, 24 h. The protocol: as §1, §2, §3
In general terms: Immunoblotting shows a protein as a band on a membrane.

The subject of data set [1] is normal human liver cell line HL7702. As to the kind of experiment: Toxicity on normal human liver cell line. The data set is classed as cell-based. The note with it: HL7702 versus cancer cell lines. The protocol:
(§4) 3 fangchinoline derivatives were also tested for their toxicities on normal human liver cell line HL7702.
(§5) Cells were cultured in 96-well plates at densities of 1 × 10^5/well. The plates were pre-incubated at 37 °C for 24 h to allow adaptation of cells prior to the addition of the test compounds. Then, compounds were added to cells in triplicate in several doses, and incubated for an additional 2 days. The 50% inhibitory concentrations (IC50) were measured for fangchinoline derivatives using MTT (diphenyltetrazolium bromide) assay.

The nature of data set [2]: Toxicity on normal human liver cell line. The format is cell-based. Particulars: HL7702 normal liver cells; normal human liver cell line HL7702; read-out: IC50 against HL7702 cell growth. The protocol: as §4, §5
The subject of a further data set is Bcl-xl. As to the kind of experiment: Western blot of apoptosis indicators, Bcl-xl. The data set is classed as cell-based, human. The note with it: WM9 cells, 2.5 µM, 24 h. On the procedure: as §1, §2, §3
Data set [3] has as its system human leukaemia K562 cell line. As to the kind of experiment: MTT in vitro cytotoxicity assay, K562. The data set is classed as cell-based. The note with it: read-out: IC50 (µM) K562. On the procedure:
(§6) As summarized in Table 1, five cancer cell lines, including MDA-MB-231, PC3, WM9, HEL and K562 cell lines, were induced for testing the anti-cancer activities of those derivatives. The first line anti-cancer drug, vincristine, was treated as positive control. All the test compounds were dissolved in DMSO. The preliminary structure-activity relationship of all compounds against the 5 cancer cell lines was also investigated.
(§7) Human erythroleukemic cell lines HEL and K562, human breast cell lines MDA-MB-231, human prostate cell lines PC3 and human melanoma cell lines WM9 were cultured in RPMI (HEL and K562) or DMEM (MDA-MB-231, PC3, WM9) medium (high glucose) supplemented with 5% FBS (HyClone, GE Healthcare, Parramatta, Australia) and 1% ampicillin/streptomycin.
as §5

The test system of data set [4] is human breast cancer MDA-MB-231 cell line. Put plainly: MTT in vitro cytotoxicity assay, MDA-MB-231. The format is cell-based. The note with it: read-out: IC50 (µM) MDA-MB-231. On the procedure:
as §6, §7, §5

Data set [5] relates to human melanoma WM9 cell line. As to the kind of experiment: MTT in vitro cytotoxicity assay, WM9. The data set is classed as cell-based. Particulars: for IC50: Homo sapiens, read-out: IC50 (µM) WM9. On the procedure: as §6, §7, §5
The next data set concerns WM9 cells. Put plainly: Annexin V-FITC/PI flow cytometry apoptosis assay. The data set is classed as cell-based, human. Particulars: 2.5 µM, 24 h. The protocol: The Annexin V-FITC-A/PI apoptosis detection kit was induced to test the further role of compound 4g in inhibiting WM9 cell death (Figure 2). Before undergoing the flow cytometry, the WM9 cells were treated with 0 and 2.5 µM compound 4g for 24 h, and then Annexin V-FITC and PI were put into use.
For apoptosis analysis, WM9 cells were incubated with compounds or DMSO as a vehicle control for 24 h. Cells were then washed with cold PBS, stained with Annexin V-FITC and Propidium Iodide (PI) using apoptosis detection Kit (BD Biosciences, Bergen, NJ, USA).
Figure 2 Compound 4g induced apoptosis in WM9 cells. WM9 cells were stained with Annexin V-FITC and PI by incubating at room temperature for 15 min after treated cells with 2.5 µM 4g for 24 h. Finally, apoptosis analysis was carried out by flow cytometry. TEXT PRINTED IN THE PICTURE: Y-37: WM9 24h: Q4-UL 1.2% (2.5 μM); WM9 24h: Q4-UR 8.8% (2.5 μM); WM9 24h: Q4-LL 74.2% (2.5 μM); WM9 24h: Q4-LR 15.8% (2.5 μM) DOUBTS OF THE COPYIST ABOUT THIS PICTURE: Y-37, Q4-UR: 8.8% or 6.8%; the first digit is partly hidden by plotted points / The Control plot also prints quadrant percentages (Q4-UL 0.7%, Q4-UR 0.0%, Q4-LL 98.9%, Q4-LR 0.3%). They are not listed because Control is not a substance.
Background: A flow cytometer gives signals particle by particle.

The test system of data set [6] is human leukaemia HEL cell line. Put plainly: MTT in vitro cytotoxicity assay, HEL. The format is cell-based. Particulars: read-out: IC50 (µM) HEL. On the procedure: as §6, §7, §5
For data set [7], the system named is human prostate cancer PC3 cell line. As to the kind of experiment: MTT in vitro cytotoxicity assay, PC3. The format is cell-based. The note with it: read-out: IC50 (µM) PC3. On the procedure: as §6, §7, §5
The subject of the next data set is PARP. Put plainly: Western blot of apoptosis indicators, PARP. The format is cell-based, human. The note with it: WM9 cells, 2.5 µM, 24 h. The protocol: as §1, §2, §3
The test system of data set [8] is human hepatocellular carcinoma cell line PLC/PRF/5. Further details: method as in PMID 21418191. Particulars: autophagy induction at relatively low concentrations; cited from earlier work.
Data set [9] deals with human hepatocellular carcinoma cell line HepG2. Further details: method as in PMID 21418191. Particulars: autophagy induction at relatively low concentrations; cited from earlier work.

Usually IC50 stands for the point on the concentration scale where inhibition reaches its midpoint. On to `COc1cc([N+](=O)[O-])c2cc1Oc1ccc(cc1)C[C@H]1c3cc(c(OC)cc3CCN1C)Oc1c(OC(=O)c3ccccc3)c(OC)cc3c1[C@H](C2)N(C)CC3` [Compound 4g, 7-O-Benzoyl-14-nitro-fangchinoline], for which the “Survivin expression (Western blot)” value in the data set on Survivin is “inhibited”. The “Pro-Caspase-3 / Cleaved-Caspase-3 (Western blot)” value in the data set with Caspase-3 was “activation of executioner from Pro-Caspase-3 to Cleaved-Caspase-3”. In the data set with Bcl-2, the “Bcl-2 expression (Western blot)” value is recorded as “inhibited”. Also, the “fold lower toxicity on HL7702 than inhibition on cancer cell lines” value in [1] is given as approximately 5 fold. Further, in [2], the 50% inhibitory concentration (IC50) at 2 days worked out at 5 µM. The “Bcl-xl expression (Western blot)” value in the data set on Bcl-xl is “inhibited”. For the same compound, the 50% inhibitory concentration (IC50) in data set [3] (K562, MTT assay after 48 h of treatment, averaged from at least 3 independent experiments, variation ±10%) stood at 2.09 µM; in data set [4] (MDA-MB-231, MTT assay after 48 h of treatment, averaged from at least 3 independent experiments, variation ±10%), 2.92 µM; in data set [5] (WM9, MTT assay after 48 h of treatment, averaged from at least 3 independent experiments, variation ±10%), 1.07 µM; in [6] (MTT assay after 48 h of treatment, averaged from at least 3 independent experiments, variation ±10%) it was 1.98 µM; in data set [7] (PC-3, MTT assay after 48 h of treatment, averaged from at least 3 independent experiments, variation ±10%), 2.03 µM. The “times more active than first stage derivative 3i on WM9” value in data set [5] (WM9 IC50 ratio versus 3i) was 2.5 times. For the same compound, the “times more active than fangchinoline on WM9” value in data set [5] (WM9 IC50 ratio versus fangchinoline) was found to be 12.2 times. The “times more active than vincristine on WM9” value in [5] (WM9 IC50 ratio versus vincristine) was determined as 9.8 times. In addition, in the data set on WM9 cells (control 0.0%), the “WM9 cells in the early apoptosis state” value stood at 8.8%. The “WM9 cells in the late apoptosis state” value in the data set with WM9 cells (control 0.3%) was 15.8%. Also, in the data set with PARP, the “full-length PARP level (Western blot)” value was “down-regulation of full-length PARP”.
Regarding `COc1ccc2cc1Oc1ccc(cc1)C[C@H]1c3cc(c(OC)cc3CCN1C)Oc1c(O)c(OC)cc3c1[C@H](C2)N(C)CC3` [Fangchinoline], the concentration for half-maximal inhibition (IC50) is approximately 5 µM in data set [8]; 10.3 µM in data set [3] (K562, 48 h); 12.3 µM in [4] (MDA-MB-231, 48 h); 13.1 µM in data set [5] (WM9, 48 h); approximately 5 µM in data set [9]; 8.95 µM in data set [6] (48 h). Besides, in [7] (PC-3, 48 h), the IC50 stood at 11.1 µM.
